Measured values published in patent US20120264735A1 (priority 2009, published 2012).

Biological target: T1, c-Met kinase (recombinant c-Met) (Homo sapiens, UniProt P08581)
T1 construct: 0.27 nM recombinant c-Met
Experiment: In vitro kinase assay I (homogeneous time-resolved fluorescence tyrosine kinase assay)
Type: biochemical
Procedure, shortened: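 Biotinylated peptide (0.5 μM) phosphorylated by 0.2 nM recombinant c-Met with 50 μM MgATP, 60 min at room temperature, pH 7.4, 5% DMSO. EDTA stop; HTRF read with Eu-anti-phosphotyrosine antibody and streptavidin-APC. IC50 from 4-parameter logistic fit.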

T1 sequence (P08581 25-1390): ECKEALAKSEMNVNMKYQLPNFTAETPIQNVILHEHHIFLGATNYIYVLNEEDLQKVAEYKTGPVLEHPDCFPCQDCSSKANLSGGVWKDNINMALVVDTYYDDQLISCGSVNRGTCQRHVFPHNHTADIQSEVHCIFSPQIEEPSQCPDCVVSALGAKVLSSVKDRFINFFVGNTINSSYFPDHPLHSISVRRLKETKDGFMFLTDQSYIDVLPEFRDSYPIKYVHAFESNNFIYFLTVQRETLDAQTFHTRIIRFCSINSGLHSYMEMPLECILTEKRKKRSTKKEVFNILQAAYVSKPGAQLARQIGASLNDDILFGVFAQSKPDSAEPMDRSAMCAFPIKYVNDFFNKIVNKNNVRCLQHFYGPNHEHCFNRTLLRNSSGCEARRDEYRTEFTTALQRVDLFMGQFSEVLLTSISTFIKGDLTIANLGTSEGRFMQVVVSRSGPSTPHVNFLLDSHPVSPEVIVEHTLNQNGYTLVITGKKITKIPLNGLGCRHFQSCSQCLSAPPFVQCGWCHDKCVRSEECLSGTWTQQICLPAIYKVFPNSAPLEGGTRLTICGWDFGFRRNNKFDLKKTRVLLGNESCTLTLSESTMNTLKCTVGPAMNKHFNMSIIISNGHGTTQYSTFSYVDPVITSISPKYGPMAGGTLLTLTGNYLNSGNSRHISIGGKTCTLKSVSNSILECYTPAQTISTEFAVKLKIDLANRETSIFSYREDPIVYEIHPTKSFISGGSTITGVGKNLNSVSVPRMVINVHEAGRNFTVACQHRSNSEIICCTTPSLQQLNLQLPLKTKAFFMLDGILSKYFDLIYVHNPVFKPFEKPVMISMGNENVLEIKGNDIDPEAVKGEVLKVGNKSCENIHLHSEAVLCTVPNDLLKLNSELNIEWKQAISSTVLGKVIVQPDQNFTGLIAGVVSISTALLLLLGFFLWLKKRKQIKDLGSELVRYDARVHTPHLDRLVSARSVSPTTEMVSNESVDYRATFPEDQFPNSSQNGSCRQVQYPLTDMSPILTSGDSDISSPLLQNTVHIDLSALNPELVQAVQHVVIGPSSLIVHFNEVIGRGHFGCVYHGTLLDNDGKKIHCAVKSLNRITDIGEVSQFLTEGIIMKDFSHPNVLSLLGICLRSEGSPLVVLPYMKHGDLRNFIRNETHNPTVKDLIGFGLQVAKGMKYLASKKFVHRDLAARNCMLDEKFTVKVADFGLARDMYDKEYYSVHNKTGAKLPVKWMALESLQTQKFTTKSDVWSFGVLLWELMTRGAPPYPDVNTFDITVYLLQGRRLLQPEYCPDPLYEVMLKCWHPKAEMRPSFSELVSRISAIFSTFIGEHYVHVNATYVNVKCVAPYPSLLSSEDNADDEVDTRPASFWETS

Structure (SMILES) | IC50 [nM]
Cn1cc(-n2ccc(=O)c(Cc3cccc(NC(=O)OCC(C)(C)C)c3)n2)cn1 [Example 501, 2,2-dimethylpropyl (3-{[1-(1-methyl-1H-pyrazol-4-yl)-4-oxo-1,4-dihydropyridazin-3-yl]methyl}phenyl)carbamate] | < 100
Cn1cc(-n2ccc(=O)c(Cc3cccc(-c4ncc(OCc5ccncc5)cn4)c3)n2)cn1 [Example 353, 1-(1-Methyl-1H-pyrazol-4-yl)-3-{3-[5(pyridin-4-ylmethoxy)pyrimidin-2-yl]benzyl}pyridazin-4(1H)-one] | < 100
CCCOc1cnc2ccc(Cc3nn(-c4cnn(C)c4)ccc3=O)cc2c1 [Example 63, 1-(1-methyl-1H-pyrazol-4-yl)-3-[(3-propoxyquinolin-6-yl)methyl]pyridazin-4(1H)-one] | < 100
Cn1cc(-n2ccc(=O)c(Cc3cccc(NC(=O)OCC4CCNCC4)c3)n2)cn1 [Example 617, piperidin-4-ylmethyl (3-{[1-(1-methyl-1H-pyrazol-4-yl)-4-oxo-1,4-dihydropyridazin-3-yl]methyl}phenyl)carbamate] | < 100
Cn1cc(-n2ccc(=O)c(Cc3cccc(N4CCCC4=O)c3)n2)cn1 [Example 636, 1-(1-Methyl-1H-pyrazol-4-yl)-3-[3-(2-oxopyrrolidin-1-yl)benzyl]pyridazin-4(1H)-one] | 100 to 1000
COCCOc1cnc(-c2cccc(Cc3nn(-c4cnn(C)c4)cc(C)c3=O)c2)nc1 [Example 750, 3-{3-[5-(2-Methoxyethoxy)pyrimidin-2-yl]benzyl}-5-methyl-1-(1-methyl-1H-pyrazol-4-yl)pyridazin-4(1H)-one] | < 100
CCOc1cnc(-c2cccc(Cc3nn(-c4cn[nH]c4)ccc3=O)c2)nc1 [Example 195, 3-[3-(5-Ethoxypyrimidin-2-yl)benzyl]-1-(1H-pyrazol-4-yl)pyridazin-4(1H)-one] | < 100
CCn1cc(-n2ccc(=O)c(Cc3cccc(-c4ncc(OCC(F)F)cn4)c3)n2)cn1 [Example 306, 3-{3-[5-(2,2-difluoroethoxy)pyrimidin-2-yl]benzyl}-1-(1-ethyl-1H-pyrazol-4-yl)pyridazin-4(1H)-one] | < 100
CC(c1cccc(-c2ncc(C3CC3)cn2)c1)c1nn(-c2cnn(C)c2)ccc1=O (single isomer, unassigned) [Example 406, 3-{(1R or S)-1-[3-(5-cyclopropyl-pyrimidin-2-yl)phenyl]ethyl}-1-(1-methyl-1H-pyrazol-4-yl)pyridazin-4(1H)-one] | < 100
CCCn1cnc(-c2cccc(Cc3nn(-c4cnn(CCOCc5ccccc5)c4)ccc3=O)c2)n1 [Example 89, 1-{1-[2-(benzyloxy)ethyl]-1H-pyrazol-4-yl}-3-[3-(1-propyl-1H-1,2,4-triazol-3-yl)benzyl]pyridazin-4(1H)-one] | 100 to 1000
CCOC(C)(C)c1cnc(-c2cccc(Cc3nn(-c4cnn(C)c4)ccc3=O)c2)nc1 [Example 169, 3-{3-[5-(1-ethoxy-1-methylethyl)pyrimidin-2-yl]benzyl}-1-(1-methyl-1H-pyrazol-4-yl)pyridazin-4(1H)-one] | 100 to 1000
O=C(Nc1cccc(Cc2nn(-c3cc(F)cc(F)c3)ccc2=O)c1)OCC1CCOC1 (racemic) [Example 593, rac-tetrahydrofuran-3-ylmethyl-(3-{[1-(3,5-difluorophenyl)-4-oxo-1,4-dihydropyridazin-3-yl]methyl}phenyl)carbamate] | < 100
CC(C)COC(=O)Nc1cccc(Cc2nn(-c3cnn(CCCC(=O)N(C)C)c3)ccc2=O)c1 [Example 696, 2-Methylpropyl {3-[(1-{1-[4-(dimethylamino)-4-oxobutyl]-1H-pyrazol-4-yl}-4-oxo-1,4-dihydropyridazin-3-yl)methyl]phenyl}carbamate] | < 100
Cn1cc(-n2ccc(=O)c(Cc3cccc(-c4ncc(-c5ccn(C)n5)cn4)c3)n2)cn1 [Example 421, 1-(1-methyl-1H-pyrazol-4-yl)-3-{3-[5-(1-melhyl-1H-pyrazol-3-yl)pyrimidin-2-yl]benzyl}pyridazin-4(1H)-one] | < 100
